For 25 compounds, IC50 results are on record in patent US12281079B2, “Quinoline derivatives, processes for their preparation and uses thereof for the treatment of cancer” (Lead Discovery Center GmbH, priority 2019, dated 2025).

The structures appear in SMILES notation.

The subject of assay [1] is mitochondrial transcription (7S RNA) in HeLa cells. As to the kind of experiment: Quantitative real time-PCR assay of inhibition of mitochondrial transcription (7S RNA) in HeLa cells. The assay is classed as cell-based. The conditions noted are these: Homo sapiens, 4 h compound incubation, according to Example 5, read-out: cellular qPCR assay. The protocol:
Quantitative real-time PCR (qRT-PCR), based on the TaqMan™ (Thermo Fisher Scientific, Waltham Mass.) technology, was carried out essentially as described in Held et al. (1996). HeLa cells were plated one day before compound treatment in RPMI medium supplemented with 10% Fetal Calf Serum and 2 mM L-glutamine. Cells were incubated with dilution series of compounds or vehicle (DMSO) for 4 h, prior to harvest and extraction of the RNA using the RNeasy Mini Kit (Qiagen, Hilden D), according to the manufacturer's instructions. RNA concentrations were measured spectroscopically, using a NanoDrop-2000 (Thermo Fisher Scientific, Waltham Mass.) and normalized prior to cDNA synthesis, using a ‘High-Capacity cDNA Reverse Transcription Kit’ (Thermo Fisher Scientific, Waltham Mass.). qRT-PCR was carried out using the ‘TaqMan Fast Advance Master Mix’ (Thermo Fisher Scientific, Waltham Mass.) on a 7500 Fast Real-Time PCR machine (Applied Biosystems, Foster City Calif.)
For these measurements, three genes were used to compare the effect of the scrutinized compounds in relation to their concentration. The POLRMT-gene was used to detect potential influences on nuclear transcription. Mitochondrial transcription in vivo was monitored by measurements 7S RNA. The TBP (TATA-box binding protein) gene was employed as the control (housekeeping gene) during qRT-PCR. The short-lived mitochondrial 7S RNA, which is not post-transcriptionally stabilized, allowed us to monitor rapid changes in mitochondrial transcription activity following compound addition. Biological triplicates were analyzed using the comparative CT Method (ΔΔCt) method (Bubner and Baldwin, 2004) and reported as Rq % values (Rq=Relative quantification=2−ΔΔCt).

Assay [2] has as its target mitochondrial RNA polymerase (POLRMT) (Mus musculus, UniProt Q8BKF1). Description: Homogeneous TR-FRET assay for mitochondrial transcription activity. The assay is classed as biochemical. The following applies: homogeneous TR-FRET assay according to Example 4. The method, boiled down: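 Read-out is TR-FRET (ex 340, em 665 nm) from two adjacent labelled DNA probes annealing to the 407 bp transcript after EDTA/700 mM NaCl stop. Reaction: murine POLRMT, TFAM, TFB2M and LSP plasmid template, compound 10 μM or serial dilution, 10 min rt preincubation, 500 μM each nucleotide, 2 h rt.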
A general note: TR-FRET usually uses a lanthanide donor and a delayed reading to cut background.

mitochondrial RNA polymerase (POLRMT), sequence (Q8BKF1 42-1207): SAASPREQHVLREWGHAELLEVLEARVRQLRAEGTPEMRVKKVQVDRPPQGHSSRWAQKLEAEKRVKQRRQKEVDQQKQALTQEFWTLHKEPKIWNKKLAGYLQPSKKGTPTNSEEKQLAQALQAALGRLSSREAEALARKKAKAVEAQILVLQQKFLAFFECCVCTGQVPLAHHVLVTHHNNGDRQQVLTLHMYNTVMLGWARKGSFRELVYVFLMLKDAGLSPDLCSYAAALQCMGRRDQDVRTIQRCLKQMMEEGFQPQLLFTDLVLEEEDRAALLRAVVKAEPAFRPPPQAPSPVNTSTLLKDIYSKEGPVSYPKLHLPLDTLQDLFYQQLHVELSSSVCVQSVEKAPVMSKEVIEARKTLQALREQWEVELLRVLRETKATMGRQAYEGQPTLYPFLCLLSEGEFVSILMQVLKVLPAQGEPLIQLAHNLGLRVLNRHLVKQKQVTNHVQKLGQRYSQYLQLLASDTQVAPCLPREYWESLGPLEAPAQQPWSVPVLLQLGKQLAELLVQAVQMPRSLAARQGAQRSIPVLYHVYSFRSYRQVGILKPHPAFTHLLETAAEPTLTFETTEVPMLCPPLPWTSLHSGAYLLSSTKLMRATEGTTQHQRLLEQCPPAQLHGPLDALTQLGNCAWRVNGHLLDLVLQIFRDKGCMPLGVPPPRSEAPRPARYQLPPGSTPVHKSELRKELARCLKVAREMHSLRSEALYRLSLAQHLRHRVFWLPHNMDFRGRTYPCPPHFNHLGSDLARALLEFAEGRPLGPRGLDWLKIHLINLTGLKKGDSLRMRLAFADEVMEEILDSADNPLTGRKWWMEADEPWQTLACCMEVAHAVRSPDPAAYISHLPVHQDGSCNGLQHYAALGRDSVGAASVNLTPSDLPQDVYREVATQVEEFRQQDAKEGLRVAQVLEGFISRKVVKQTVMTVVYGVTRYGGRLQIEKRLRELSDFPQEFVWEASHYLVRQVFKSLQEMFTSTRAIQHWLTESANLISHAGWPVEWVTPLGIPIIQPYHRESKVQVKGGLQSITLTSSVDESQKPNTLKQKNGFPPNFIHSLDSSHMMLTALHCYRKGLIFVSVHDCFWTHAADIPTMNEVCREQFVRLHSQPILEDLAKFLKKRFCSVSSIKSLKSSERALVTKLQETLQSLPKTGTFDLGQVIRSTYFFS

Take `CNC(=O)[C@H]1CCCN(C(=O)[C@@H](C)Oc2ccc3c(-c4ccc(F)cc4Cl)ccnc3c2)C1` [Compound 38, (3S)-1-[(2R)-2-[[4-(2-chloro-4-fluoro-phenyl)-7-quinolyl]oxy]propanoyl]-N-methyl-piperidine-3-carboxamide]: the IC50 in assay [1] was in the range of 10 to 50 nM; in assay [2], 100 to 1000 nM.
For `Cc1cccc(C)c1-c1ccnc2cc(O[C@H](C)C(=O)N3CCC[C@H](CC(=O)O)C3)ccc12` [Compound 3, 2-[(3R)-1-[(2R)-2-[[4-(2,6-dimethylphenyl)-7-quinolyl]oxy]propanoyl]-3-piperidyl]acetic acid] the same measures were less than 10 nM and less than 20 nM.
With `C[C@@H](Oc1ccc2c(-c3ccccc3Cl)cc(F)nc2c1)C(=O)N1CCC[C@H](C(=O)O)C1` [Compound 12, (3S)-1-[(2R)-2-[[4-(2-chlorophenyl)-2-fluoro-7-quinolyl]oxy]propanoyl]piperidine-3-carboxylic acid], the IC50 in assay [1] is less than 10 nM; in assay [2], less than 20 nM.
In the case of `C[C@@H](Oc1ccc2c(-c3ccc(F)cc3Cl)ccnc2c1)C(=O)N1CCC[C@H](C#N)C1` [Compound 30, (3S)-1-[(2R)-2-[[4-(2-chloro-4-fluoro-phenyl)-7-quinolyl]oxy]propanoyl]piperidine-3-carbonitrile], the IC50 lay within 10 to 50 nM in assay [1] and 100 to 1000 nM in assay [2].
For `C[C@@H](Oc1ccc2c(-c3ccc(F)cc3Cl)ccnc2c1)C(=O)N1CCC[C@](C)(C(=O)O)C1` [Compound 189, (3S)-1-[(2R)-2-[[4-(2-chloro-4-fluoro-phenyl)-7-quinolyl]oxy]propanoyl]-3-methyl-piperidine-3-carboxylic acid] the same measures were less than 10 nM and less than 20 nM.
For `C[C@@H](Oc1ccc2c(-c3ccccc3Cl)ccnc2c1)C(=O)N1CCC[C@@H](C(=O)O)C1` [Compound 7, (3R)-1-[(2R)-2-[[4-(2-chlorophenyl)-7-quinolyl]oxy]propanoyl]piperidine-3-carboxylic acid] the same measures were less than 10 nM and less than 20 nM.
For `C[C@@H](Oc1ccc2c(-c3ccccc3Cl)cc(Cl)nc2c1)C(=O)N1CCNCC1` [Compound 104, (2R)-2-[[2-chloro-4-(2-chlorophenyl)-7-quinolyl]oxy]-1-piperazin-1-yl-propan-1-one] the same measures were 50 to 500 nM and 1000 to 10000 nM.
Turning to `Cc1cc(F)ccc1-c1cc(Cl)nc2cc(O[C@H](C)C(=O)N3CCC[C@H](C(=O)O)C3)ccc12` [Compound 35, (3S)-1-[(2R)-2-[[2-chloro-4-(4-fluoro-2-methyl-phenyl)-7-quinolyl]oxy]propanoyl]piperidine-3-carboxylic acid], the IC50 is less than 10 nM in assay [1] and 100 to 1000 nM in assay [2].
For `Cc1sccc1-c1ccnc2cc(O[C@H](C)C(=O)N3CCC[C@H](CC(=O)O)C3)ccc12` [Compound 79, 2-[(3R)-1-[(2R)-2-[[4-(2-methyl-3-thienyl)-7-quinolyl]oxy]propanoyl]-3-piperidyl]acetic acid] the same measures were 50 to 500 nM and 100 to 1000 nM.
For `C[C@@H](Oc1ccc2c(-c3ccccc3Cl)ccnc2c1)C(=O)N(C)C` [Compound 88, (2R)-2-[[4-(2-chlorophenyl)-7-quinolyl]oxy]-N,N-dimethyl-propanamide] the same measures were 50 to 500 nM and 1000 to 10000 nM.
Take `C[C@@H](Oc1ccc2c(-c3ccc(F)cc3Cl)ccnc2c1)C(=O)N1CCCC(C(C)(C)C(=O)O)C1` (stereo partly drawn) [Compound 197, 2-methyl-2-[1-[rac-(2R)-2-[[4-(2-chloro-4-fluoro-phenyl)-7-quinolyl]oxy]propanoyl]-3-piperidyl]propanoic acid]: the IC50 fell in the range of 10 to 50 nM in assay [1] and 20 to 100 nM in assay [2].
For `C[C@@H](Oc1ccc2c(-c3ccc(F)cc3Cl)cc(Cl)nc2c1)C(=O)N1CCC[C@H](CC(=O)O)C1` [Compound 56, 2-[(3R)-1-[(2R)-2-[[2-chloro-4-(2-chloro-4-fluoro-phenyl)-7-quinolyl]oxy]propanoyl]-3-piperidyl]acetic acid] the same measures were 50 to 500 nM and 100 to 1000 nM.
As to `C[C@@H](Oc1ccc2c(-c3ccc(F)cc3Cl)ccnc2c1)C(=O)N1CCC[C@H](C(=O)O)C1` [Compound 10, (3S)-1-[(2R)-2-[[4-(2-chloro-4-fluoro-phenyl)-7-quinolyl]oxy]propanoyl]piperidine-3-carboxylic acid], the results for the IC50 in assay [1] and in assay [2] were 10 to 50 nM and less than 20 nM, respectively.
For `C[C@@H](Oc1ccc2c(-c3ccc(F)cc3Cl)ccnc2c1)C(=O)N1CCC[C@@H](C(=O)O)C1` [Compound 17, (3R)-1-[(2R)-2-[[4-(2-chloro-4-fluoro-phenyl)-7-quinolyl]oxy]propanoyl]piperidine-3-carboxylic acid] the same measures were 50 to 500 nM and 20 to 100 nM.
For `C[C@@H](Oc1ccc2c(-c3c(Cl)cc(F)cc3Cl)ccnc2c1)C(=O)N1CCOCC1` [Compound 201, (2R)-2-[[4-(2,6-dichloro-4-fluoro-phenyl)-7-quinolyl]oxy]-1-morpholino-propan-1-one], the IC50 in assay [1] fell in the range of 10 to 50 nM; in assay [2] it was 100 to 1000 nM.
For `Cc1cc(F)cc(C)c1-c1ccnc2cc(O[C@H](C)C(=O)N3CCCC[C@H]3C)ccc12` [Compound 187, (2R)-2-[[4-(4-fluoro-2,6-dimethyl-phenyl)-7-quinolyl]oxy]-1-[(2R)-2-methyl-1-piperidyl]propan-1-one] the same measures were less than 10 nM and less than 20 nM.
For `CC(Oc1ccc2c(-c3ccc(F)cc3Cl)ccnc2n1)C(=O)N1CCC[C@H](C(=O)O)C1` (mixture of isomers) [Compound 62, (3S)-1-[2-[[5-(2-chloro-4-fluoro-phenyl)-1,8-naphthyridin-2-yl]oxy]propanoyl]piperidine-3-carboxylic acid] the same measures were 10 to 50 nM and 100 to 1000 nM.
For `CC(C)NC(=O)[C@@H](C)Oc1ccc2c(-c3ccc(F)cc3Cl)ccnc2c1` [Compound 61, (2R)-2-[[4-(2-chloro-4-fluoro-phenyl)-7-quinolyl]oxy]-N-isopropyl-propanamide] the same measures were 50 to 500 nM and 100 to 1000 nM.
Turning to `C[C@@H](Oc1ccc2c(-c3c(Cl)cc(F)cc3Cl)ccnc2c1)C(=O)N1CCC[C@H](CC(=O)O)C1` [Compound 192, 2-[(3R)-1-[(2R)-2-[[4-(2,6-dichloro-4-fluoro-phenyl)-7-quinolyl]oxy]propanoyl]-3-piperidyl]acetic acid], the IC50 is less than 10 nM in assay [1] and 20 to 100 nM in assay [2].
For `C[C@@H](Oc1ccc2c(-c3c(Cl)cc(F)cc3Cl)ccnc2c1)C(=O)N1CCC[C@H](C(=O)O)C1` [Compound 132, (3S)-1-[(2R)-2-[[4-(2,6-dichloro-4-fluoro-phenyl)-7-quinolyl]oxy]propanoyl]piperidine-3-carboxylic acid] the same measures were less than 10 nM and less than 20 nM.
For `C[C@@H](Oc1ccc2c(-c3ccccc3Cl)cc(Cl)nc2c1)C(=O)N1CCCCC1` [Compound 99, (2R)-2-[[2-chloro-4-(2-chlorophenyl)-7-quinolyl]oxy]-1-(1-piperidyl)propan-1-one] the same measures were 500 to 5000 nM and 1000 to 10000 nM.
In the case of `C[C@@H](Oc1ccc2c(-c3ccc(F)cc3Cl)cc(Cl)nc2c1)C(=O)N1CCC[C@H](C(N)=O)C1` [Compound 81, (3S)-1-[(2R)-2-[[2-chloro-4-(2-chloro-4-fluoro-phenyl)-7-quinolyl]oxy]propanoyl]piperidine-3-carboxamide], the IC50 is 50 to 500 nM in assay [1] and 1000 to 10000 nM in assay [2].
`C[C@@H](Oc1ccc2c(-c3ccc(F)cc3Cl)ccnc2n1)C(=O)N1CCC[C@H](CC(=O)O)C1` [Compound 128, 2-[(3R)-1-[(2R)-2-[[5-(2-chloro-4-fluoro-phenyl)-1,8-naphthyridin-2-yl]oxy]propanoyl]-3-piperidyl]acetic acid]: the IC50 in assay [1] was in the range of 50 to 500 nM; in assay [2], 100 to 1000 nM.
For `C[C@@H](Oc1ccc2c(-c3c(Cl)cc(F)cc3Cl)ccnc2c1)C(=O)N1CCCC(C2(C(=O)O)CC2)C1` (mixture of isomers) [Compound 196, 1-[1-[rac-(2R)-2-[[4-(2,6-dichloro-4-fluoro-phenyl)-7-quinolyl]oxy]propanoyl]-3-piperidyl]cyclopropanecarboxylic acid] the same measures were 10 to 50 nM and 20 to 100 nM.
For `Cc1cc(F)cc(C)c1-c1ccnc2cc(O[C@H](C)C(=O)N3CCCC[C@@H]3C)ccc12` [Compound 176, (2R)-2-[[4-(4-fluoro-2,6-dimethyl-phenyl)-7-quinolyl]oxy]-1-[(2S)-2-methyl-1-piperidyl]propan-1-one] the same measures were 10 to 50 nM and less than 20 nM.
